Experimental data published in ChEMBL document CHEMBL4118229, “lH-Pyrazolo[3,4-b]quinolin-3-amine derivatives inhibit growth of colon cancer cells via apoptosis and sub G1 cell cycle arrest” (Bioorg Med Chem Lett, 2018).

Legend:
[1] = test system: DU-145; experiment: Antiproliferative activity against human DU145 cells by MTT assay; format: functional, cell-based
[2] = test system: HEK293; experiment: Antiproliferative activity against human HEK293 cells by MTT assay; format: cell-based
[3] = test system: HCT-116; experiment: Antiproliferative activity against human HCT116 cells by MTT assay; format: functional, cell-based
[4] = test system: HT-29; experiment: Antiproliferative activity against human HT-29 cells by MTT assay; format: functional, cell-based
[5] = test system: A2780; experiment: Antiproliferative activity against human A2780 cells by MTT assay; format: functional, cell-based
[6] = test system: LN-229; experiment: Antiproliferative activity against human LN229 cells by MTT assay; format: functional, cell-based
[7] = test system: PC-3; experiment: Antiproliferative activity against human PC3 cells by MTT assay; format: functional, cell-based
[8] = test system: MDA-MB-231; experiment: Antiproliferative activity against human MDA-MB-231 cells by MTT assay; format: functional, cell-based
[9] = test system: MCF7; experiment: Antiproliferative activity against human MCF7 cells by MTT assay; format: functional, cell-based
[10] = test system: HCT-15; experiment: Antiproliferative activity against human HCT15 cells by MTT assay; format: functional, cell-based
[11] = test system: LoVo; experiment: Antiproliferative activity against human LoVo cells by MTT assay; format: functional, cell-based

| IC50 [1] [µM] | IC50 [3] [µM] | IC50 [4] [µM] | IC50 [5] [µM] | IC50 [7] [µM] | IC50 [8] [µM] | IC50 [9] [µM] | IC50 [10] [µM] | IC50 [11] [µM] | SMILES | IC50 [2] [µM] | IC50 [6] [µM] |
| --- | --- | --- | --- | --- | --- | --- | --- | --- | --- | --- | --- |
| 76.5 | 57 | 85.2 | 35.8 | > 100 | 62.3 | 49.5 | 69.3 | 55.6 | COc1ccc2nc3[nH]nc(N)c3cc2c1 | > 100 | 93.7 |
| > 100 | > 100 | 32.9 | 98.3 | > 100 | > 100 | > 100 | > 100 | 89.6 | Cc1ccc2[nH]c3nnc(N)c-3cc2c1 | > 100 | 61.2 |
| 73.4 | 40.8 | 19.4 | 19.6 | 65.2 | 77.9 | 72.1 | 12.8 | 33.4 | COc1cc2cc3c(N)n[nH]c3nc2cc1OC | 81.1 | 26 |
| > 100 | 76.1 | 98.7 | 13.5 | 59.7 | > 100 | 73.6 | 68.6 | 80.6 | Nc1n[nH]c2nc3c(ccc4ccccc43)cc12 | > 100 | 54.3 |
